Data taken from the CheMixHub ionic liquid set.

Assay: xn = mol fraction of the nth substance listed
Conditions: 100 kPa, x1 = 0.2689, x2 = 0.5819

C[N+]1(CCOCCOCC[N+]2(C)CCCC2)CCCC1.O=S(=O)([N-]S(=O)(=O)C(F)(F)F)C(F)(F)F.O=S(=O)([N-]S(=O)(=O)C(F)(F)F)C(F)(F)F + CC[n+]1ccn(C)c1.O=S(=O)([N-]S(=O)(=O)C(F)(F)F)C(F)(F)F + O=S(=O)([N-]S(=O)(=O)C(F)(F)F)C(F)(F)F.[Li+]
Conditions | electrical conductivity [S/m]
298 K | 0.282
303 K | 0.341
313 K | 0.451
323 K | 0.63
333 K | 0.82
343 K | 1.02
